Source: US8765730B2 (Hoffmann-La Roche Inc, priority 2010, dated 2014)

Target: T1, human GPBAR1 receptor (Homo sapiens, UniProt Q8TDU6)
T1 construct: expressed in transfected cells
T1 sequence (Q8TDU6 1-330): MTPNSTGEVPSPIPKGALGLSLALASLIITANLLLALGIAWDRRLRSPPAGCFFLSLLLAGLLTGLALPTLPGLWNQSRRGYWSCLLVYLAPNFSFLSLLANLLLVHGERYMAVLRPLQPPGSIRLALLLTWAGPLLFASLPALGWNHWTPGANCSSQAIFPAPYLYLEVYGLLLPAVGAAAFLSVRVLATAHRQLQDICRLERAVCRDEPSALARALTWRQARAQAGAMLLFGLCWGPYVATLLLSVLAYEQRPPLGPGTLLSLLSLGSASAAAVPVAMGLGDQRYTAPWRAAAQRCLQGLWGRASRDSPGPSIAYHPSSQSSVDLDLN
Experiment: functional cAMP assay in CHO-dhfr(minus) cells expressing human GPBAR1 receptors
Format: cell-based
Settings: human EC50, functional cAMP assay, 30 min at 30° C.
In short: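 Agonist cAMP read-out: stable GPBAR1 CHO-dhfr− clone, 30 min compound exposure at 30° C following 30 min IBMX (1 mM) preincubation in Krebs Ringer bicarbonate. Time-resolved energy-transfer detection gives EC50; parental CHO cells serve as counter-screen.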

SMILES	EC50
Cc1cc(/C(C[C@H](c2ccc(C(=O)NC[C@H](C)O)cc2)c2ccccc2C)=N/O)ccn1 [Example 275, 4-[(R)-3-[(E)-Hydroxyimino]-3-(2-methyl-pyridin-4-yl)-1-o-tolyl-propyl]-N—((S)-2-hydroxy-propyl)-benzamide]	0.026 µM
Cc1cc(/C(C[C@H](c2ccc(C(=O)N[C@H]3CC[C@H](C(=O)O)CC3)cc2)c2ccccc2C)=N/O)ccn1 [Example 276, Trans-4-{4-[(R)-3-[(E)-Hydroxyimino]-3-(2-methyl-pyridin-4-yl)-1-o-tolyl-propyl]-benzoylamino}-cyclohexanecarboxylic acid]	0.059 µM
Cc1cc(/C(C[C@H](c2ccc(C(=O)N(C)C)cc2)c2ccccc2C)=N/O)ccn1 [Example 277, 4-[(R)-3-[(E)-Hydroxyimino]-3-(2-methyl-pyridin-4-yl)-1-o-tolyl-propyl]-N,N-dimethyl-benzamide]	0.021 µM
CNC(=O)c1ccc([C@@H](C/C(=N\O)c2ccnc(C)c2)c2ccccc2C)cc1 [Example 278, 4-[(R)-3-[(E)-Hydroxyimino]-3-(2-methyl-pyridin-4-yl)-1-o-tolyl-propyl]-N-methyl-benzamide]	0.015 µM
Cc1cc(/C(C[C@H](c2ccc(N3CC(C(=O)O)C3)cc2)c2ccccc2C)=N/O)ccn1 [Example 279, 1-{4-[(R)-3-[(E)-Hydroxyimino]-3-(2-methyl-pyridin-4-yl)-1-o-tolyl-propyl]-phenyl}-azetidine-3-carboxylic acid]	0.011 µM
Cc1cc(/C(C[C@H](c2ccc(NCC(CCl)C(=O)O)cc2)c2ccccc2C)=N/O)ccn1 (stereo partly drawn) [Example 280, 2-Chloromethyl-3-{4-[(R)-3-[(E)-hydroxyimino]-3-(2-methyl-pyridin-4-yl)-1-o-tolyl-propyl]-phenylamino}-propionic acid]	0.019 µM
Cc1cc(/C(C[C@@H](c2ccc(C(=O)O)cc2)c2ccc(Cl)cc2C)=N/O)ccn1 [Example 282, 4-[(S)-1-(4-Chloro-2-methyl-phenyl)-3-[(E)-hydroxyimino]-3-(2-methyl-pyridin-4-yl)-propyl]-benzoic acid]	0.648 µM
Cc1cc(/C(C[C@@H](c2ccc(C(=O)N(C)C)cc2)c2ccc(Cl)cc2C)=N/O)ccn1 [Example 283, 4-[(S)-1-(4-Chloro-2-methyl-phenyl)-3-[(E)-hydroxyimino]-3-(2-methyl-pyridin-4-yl)-propyl]-N,N-dimethyl-benzamide]	0.051 µM
Cc1cc(/C(C[C@H](c2ccc(N3CCC(C(=O)O)CC3)cc2)c2ccc(Cl)cc2C)=N/O)ccn1 [Example 284, 1-{4-[(R)-1-(4-Chloro-2-methyl-phenyl)-3-[(E)-hydroxyimino]-3-(2-methyl-pyridin-4-yl)-propyl]-phenyl}-piperidine-4-carboxylic acid]	0.002 µM
Cc1cc(/C(C[C@@H](c2ccc(N3CCC(C(=O)O)CC3)cc2)c2ccc(Cl)cc2C)=N/O)ccn1 [Example 285, 1-{4-[(S)-1-(4-Chloro-2-methyl-phenyl)-3-[(E)-hydroxyimino]-3-(2-methyl-pyridin-4-yl)-propyl]-phenyl}-piperidine-4-carboxylic acid]	0.004 µM
CCOC(=O)C(C(=O)OCC)c1ccc([C@H](C/C(=N\O)c2ccnc(C)c2)c2ccccc2C)cc1 [Example 286, 2-{4-[(S)-3-[(E)-Hydroxyimino]-3-(2-methyl-pyridin-4-yl)-1-o-tolyl-propyl]-phenyl}-malonic acid diethyl ester]	2.41 µM
C#Cc1ccc([C@@H](CC(=NO)c2ccnc(C)c2)c2ccccc2C)cc1 [Example 287, (R)-3-(4-Ethynyl-phenyl)-1-(2-methyl-pyridin-4-yl)-3-o-tolyl-propan-1-one oxime]	0.002 µM
Cc1cc(/C(C[C@H](c2ccc(CC(=O)NCCO)cc2)c2ccccc2C)=N/O)ccn1 [Example 289, N-(2-Hydroxy-ethyl)-2-{4-[(R)-3-[(E)-hydroxyimino]-3-(2-methyl-pyridin-4-yl)-1-o-tolyl-propyl]-phenyl}-acetamide]	0.023 µM
Cc1ccccc1[C@H](C/C(=N\O)c1ccnc(Cl)c1)c1ccc(-c2ccc(C(=O)O)cc2)cc1 [Example 290, 4′-{(R)-3-(2-Chloro-pyridin-4-yl)-3-[(E)-hydroxyimino]-1-o-tolyl-propyl}-biphenyl-4-carboxylic acid]	0.037 µM
Cc1ccccc1[C@H](C/C(=N\O)c1ccnc(C(F)(F)F)c1)c1ccc(-c2ccc(C(=O)O)cc2)cc1 [Example 291, 4′-[(R)-3-[(E)-Hydroxyimino]-1-o-tolyl-3-(2-trifluoromethyl-pyridin-4-yl)-propyl]-biphenyl-4-carboxylic acid]	0.365 µM
Cc1ccccc1[C@H](C/C(=N\O)c1cc(Cl)ncc1F)c1ccc(-c2ccc(C(=O)O)cc2)cc1 [Example 292, 4′-{(R)-3-(2-Chloro-5-fluoro-pyridin-4-yl)-3-[(E)-hydroxyimino]-1-o-tolyl-propyl}-biphenyl-4-carboxylic acid]	0.006 µM
Cc1ccccc1[C@H](C/C(=N\O)c1cc(F)ncc1Cl)c1ccc(-c2ccc(C(=O)O)cc2)cc1 [Example 293, 4′-{(R)-3-(5-Chloro-2-fluoro-pyridin-4-yl)-3-[(E)-hydroxyimino]-1-o-tolyl-propyl}-biphenyl-4-carboxylic acid]	0.012 µM
Cc1cc(/C(C[C@H](c2ccc(-c3ccc(C(=O)O)cc3)cc2)c2ccccc2C)=N/O)cc(C)n1 [Example 294, 4′-{(R)-3-(2,6-Dimethyl-pyridin-4-yl)-3-[(E)-hydroxyimino]-1-o-tolyl-propyl}-biphenyl-4-carboxylic acid]	0.021 µM
Cc1cc(/C(C[C@@H](c2ccc(-c3ccc(C(=O)O)cc3)cc2)c2ccc(Cl)cc2C)=N/O)ccn1 [Example 296, 4′-[(S)-1-(4-Chloro-2-methyl-phenyl)-3-[(E)-hydroxyimino]-3-(2-methyl-pyridin-4-yl)-propyl]-biphenyl-4-carboxylic acid]	0.032 µM
Cc1cc(/C(C[C@H](c2ccc(-c3ccc(C(=O)O)cc3)cc2)c2ccc(Cl)cc2C)=N/O)ccn1 [Example 297, 4′-[(R)-1-(4-Chloro-2-methyl-phenyl)-3-[(E)-hydroxyimino]-3-(2-methyl-pyridin-4-yl)-propyl]-biphenyl-4-carboxylic acid]	0.013 µM
Cc1ccccc1[C@H](C/C(Cc1ccncc1)=N\O)c1ccc(-c2ccc(C(=O)O)cc2)cc1 [Example 298, 4′-{(R)-3-[(E)-Hydroxyimino]-4-pyridin-4-yl-1-o-tolyl-butyl}-biphenyl-4-carboxylic acid]	0.411 µM
Cc1cc(/C(C[C@H](c2ccc(N3CCCC3=O)cc2)c2ccccc2C)=N/O)ccn1 [Example 299, 1-{4-[(R)-3-[(E)-Hydroxyimino]-3-(2-methyl-pyridin-4-yl)-1-o-tolyl-propyl]-phenyl}-pyrrolidin-2-one]	0.028 µM
Cc1cc(/C(C[C@H](c2ccc(N[C@H]3C[C@@H](C(=O)O)C3)cc2)c2ccccc2C)=N/O)ccn1 [Example 300, 3-{4-[(R)-3-[(E)-Hydroxyimino]-3-(2-methyl-pyridin-4-yl)-1-o-tolyl-propyl]-phenylamino}-cyclobutanecarboxylic acid]	0.055 µM
Cc1ccccc1C(C/C(=N\O)c1ccc(=O)n(C)c1)c1ccc(C(=O)N[C@H](C)CO)cc1 (stereo partly drawn) [Example 301, 4-((E)-3-(Hydroxyimino)-3-(1-methyl-6-oxo-1,6-dihydropyridin-3-yl)-1-o-tolylpropyl)-N-((R)-1-hydroxypropan-2-yl)benzamide]	4.1 µM
Cc1ccccc1C(C/C(=N\O)c1ccc(=O)n(C)c1)c1ccc(C(=O)N[C@@H](C)CO)cc1 (stereo partly drawn) [Example 302, 4-((E)-3-(Hydroxyimino)-3-(1-methyl-6-oxo-1,6-dihydropyridin-3-yl)-1-o-tolylpropyl)-N—((S)-1-hydroxypropan-2-yl)benzamide]	0.32 µM
Cc1ccccc1C(C/C(=N\O)c1ccc(=O)n(C)c1)c1ccc(C(=O)NC(C)(C)CO)cc1 (stereo not drawn) [Example 303, (E)-N-(1-Hydroxy-2-methylpropan-2-yl)-4-(3-(hydroxyimino)-3-(1-methyl-6-oxo-1,6-dihydropyridin-3-yl)-1-o-tolylpropyl)benzamide]	0.816 µM
Cc1ccccc1C(C/C(=N\O)c1ccc(=O)n(C)c1)c1ccc(C(=O)NC(CO)CO)cc1 (stereo not drawn) [Example 304, (E)-N-(1,3-Dihydroxypropan-2-yl)-4-(3-(hydroxyimino)-3-(1-methyl-6-oxo-1,6-dihydropyridin-3-yl)-1-o-tolylpropyl)benzamide]	0.506 µM
Cc1ccccc1C(C/C(=N\O)c1ccc(=O)n(C)c1)c1ccc(C(=O)N[C@@H](CO)C(C)C)cc1 (stereo partly drawn) [Example 305, N—((R)-1-hydroxy-3-methylbutan-2-yl)-4-((E)-3-(hydroxyimino)-3-(1-methyl-6-oxo-1,6-dihydropyridin-3-yl)-1-o-tolylpropyl)benzamide]	1.63 µM
Cc1ccccc1C(C/C(=N\O)c1ccc(=O)n(C)c1)c1ccc(C(=O)NC[C@@H](O)CO)cc1 (stereo partly drawn) [Example 307, N—((R)-2,3-Dihydroxypropyl)-4-((E)-3-(hydroxyimino)-3-(1-methyl-6-oxo-1,6-dihydro-pyridin-3-yl)-1-o-tolylpropyl)benzamide]	0.116 µM
Cc1ccccc1C(C/C(=N\O)c1ccc(=O)n(C)c1)c1ccc(C(=O)NC2(CO)CC2)cc1 (stereo not drawn) [Example 308, (E)-4-(3-(Hydroxyimino)-3-(1-methyl-6-oxo-1,6-dihydropyridin-3-yl)-1-o-tolylpropyl)-N-(1-(hydroxymethyl)cyclopropyl)benzamide]	0.592 µM
